Results from US5814638A, “Ophthalmic formulation for treating myopia comprising dopamine agonist and cyclodextrin” (LG Chemical Ltd., priority 1996, dated 1998).

How the values were obtained:
[1] = test system: eye of a young maturing animal; details: ocular administration; cited from earlier work
[2] = Stability of dopamine agonists in 10 mM citrate buffer (pH 5) at 25° C. with or without HPCD; assay type: physicochemical; details: 100 μg/ml, 10 mM citrate buffer pH 5, 25° C., 30 days, with vs without 20 wt % HPCD
Procedure: (§1) The stability and solubility of dopamine agonists, i.e., bromocriptine(BCT), apomorphine(APO), pergolide(PER), and lisuride(LIS) were tested as follows.
(§2) For the stability test, solutions each containing 100 μg/ml of the dopamine agonist in 10 mM citrate buffer(pH 5) were incubated at 25° C. for 30 days with or without added 2-hydroxypropyl-β-cyclodextrin(HPCD, average molar substitution=0.8, average molecular weight=1500; 20 wt % based on the solution).
(§3) The amounts of the dopamine agonists in sample solutions of the stability and solubility tests were determined by HPLC method with fluorescence detector.
(§4) Each data point in FIGS. 1A and 1B represents the mean of two determinations and each value in FIG. 2 is the mean±SD(standard deviation) of three determinations. […] The addition of HPCD also bring about marked increases in the solubilities of the dopamine agonists; by a factor of 19 for bromocriptine, and two for apomorphine, pergolide, and lisuride.

[3] = Solubility of dopamine agonists in 10 mM citrate buffer (pH 5) at 25° C. with or without HPCD; assay type: physicochemical
Procedure: as §1, §2, §3, §4

[4] = in vivo; cited from earlier work
[5] = cited from earlier work; for Stability with sodium acetate: Tris buffer pH 7.4, sodium acetate added; for Stability in Tris buffer: pH 7.4
[6] = mucoadhesive polymer, e.g., polycarbophil; cited from earlier work
[7] = in vivo; cited from earlier work; remark: listed apart in the source
form-deprivation myopia = details: daily intravitreal injections; young chickens; cited from earlier work

**Q.** For `O=C(CCCN1CCC(O)(c2ccc(Cl)cc2)CC1)c1ccc(F)cc1` [haloperidol], which “Inhibition of axial enlargement of the eye” value (from here on “Inhibition”) [1] is on record?
**A.** can inhibit, and in some cases completely prevent, the axial enlargement of the eye

**Q.** Which “Inhibition” value [1] does the source give for `CCCC(=O)c1ccccc1` [butyrophenone] here?
**A.** can inhibit, and in some cases completely prevent, the axial enlargement of the eye

**Q.** With `CC(C)C[C@H]1C(=O)N2CCC[C@H]2[C@]2(O)O[C@](NC(=O)[C@@H]3C=C4c5cccc6[nH]c(Br)c(c56)C[C@H]4N(C)C3)(C(C)C)C(=O)N12` [bromocriptine] as the compound, how does the “Effect of HPCD on stability” value [2] read?
**A.** significant increases in the stabilities

**Q.** Which results are given for `CCN(CC)C(=O)N[C@H]1C=C2c3cccc4[nH]cc(c34)C[C@H]2N(C)C1` [lisuride]?
**A.** Effect of HPCD on stability [2]: does not affect the stabilities; Increase in solubility by addition of HPCD (factor) ([3]; 20 mg/ml, 10 mM citrate buffer pH 5, 25° C., 24 hours, 20 wt % HPCD vs none): two

**Q.** With poly(vinyl alcohol) as the compound, how does the “Increase in the iris-ciliary body to plasma drug concentration ratio” value [4] read?
**A.** 52 fold

**Q.** With `NCCc1ccc(O)c(O)c1` [dopamine] as the compound, how does the “Stability with sodium acetate” value [5] read?
**A.** greatly enhanced

**Q.** What about the “Stability in Tris buffer” value [5] of the same compound?
**A.** unstable

**Q.** With gentamicin as the compound, how does the “Penetration via the conjunctival-scleral pathway” value [6] read?
**A.** facilitated

**Q.** Which “Increase in solubility by addition of HPCD (factor)” value ([3]; pH 5) does the source give for `CCCN1C[C@H](CSC)C[C@@H]2c3cccc4[nH]cc(c34)C[C@H]21` [pergolide] here?
**A.** two

**Q.** With 2-hydroxypropyl-β-cyclodextrin as the compound, how does the Tolerability when administered [7] read?
**A.** innocuous when administered

**Q.** For `CN1CCc2cccc3c2[C@H]1Cc1ccc(O)c(O)c1-3` [apomorphine], which “Increase in solubility by addition of HPCD (factor)” value ([3]; pH 5) is on record?
**A.** two

**Q.** And the “Inhibition” value [1]?
**A.** can inhibit, and in some cases completely prevent, the axial enlargement of the eye

**Q.** What about the “Effect on form-deprivation myopia (FDM)” value (form-deprivation myopia) of the same compound?
**A.** block form-deprivation myopia

**Q.** And the Stability with mercaptoethanol ([5]; 0.01% mercaptoethanol)?
**A.** stability of apomorphine is improved

**Q.** And the “Stability with sodium acetate” value [5]?
**A.** greatly enhanced

**Q.** And the “Stability in Tris buffer” value [5]?
**A.** unstable

**Q.** What about the Stability with antioxidants ([5]; water or plasma, ascorbic acid and sodium bisulfate) of the same compound?
**A.** can be stabilized by the addition of antioxidants
